Source: the supplement of paper PMC10307832

How the values were obtained:
Experiment in all cases: relative viability (nuclei count vs DMSO), 5 days (fraction); higher = more cells survive
Trametinib + Lapatinib = compound: CC(=O)Nc1cccc(-n2c(=O)n(C3CC3)c(=O)c3c(Nc4ccc(I)cc4F)n(C)c(=O)c(C)c32)c1 [Trametinib] + CS(=O)(=O)CCNCc1ccc(-c2ccc3ncnc(Nc4ccc(OCc5cccc(F)c5)c(Cl)c4)c3c2)o1 [Lapatinib] (partner 2 µM)
Outline: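 A single step with final 0.05% Triton X-100, 1% formaldehyde and 1 ug/ml Hoechst fixed the cells and stained nuclei 5 days after treatment. Lung cancer cell lines in 1536-well plates had been treated by pin tool the day after seeding with one drug alone or a fixed anchor-drug dose plus five library-drug doses (not always all listed) in √10 steps, and nuclei were counted on 4× images. Relative viability is the ratio of nuclei in treated wells to nuclei in vehicle wells, taken as the median of duplicate plates.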

[1] = compound: CN1C=C(C2=CC=CC=C21)/C=C\3/C4=C(C=CC=N4)NC3=O
Outline: (§1)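 Viability was defined as treated-well nuclei divided by vehicle-well nuclei, with the median taken over replicate plates. Cells from lung cancer lines sat overnight at 37 °C in 1536-well plates, received five √10-spaced library-drug doses by pinning on vehicle-anchored plates, and grew 5 days without medium change before one-step fixation, permeabilisation and Hoechst staining, 4× imaging and MetaXpress nuclear counts. Only plates with control CV under 25% and at least one doubling were kept.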

Trametinib = compound: CC(=O)Nc1cccc(-n2c(=O)n(C3CC3)c(=O)c3c(Nc4ccc(I)cc4F)n(C)c(=O)c(C)c32)c1 [Trametinib]
Outline: as §1

| Cell Line | relative viability (Trametinib + Lapatinib; first compound 0.0025 µM) | relative viability (Trametinib + Lapatinib; first compound 0.007906 µM) | relative viability (Trametinib + Lapatinib; first compound 0.025 µM) | relative viability (Trametinib + Lapatinib; first compound 0.07906 µM) | relative viability (Trametinib + Lapatinib; first compound 0.25 µM) | relative viability ([1]; 0.02 µM) | relative viability ([1]; 0.06325 µM) | relative viability ([1]; 0.2 µM) | relative viability ([1]; 0.6325 µM) | relative viability ([1]; 2 µM) | relative viability (Trametinib; 0.0025 µM) | relative viability (Trametinib; 0.007906 µM) | relative viability (Trametinib; 0.02 µM, anchor plate) | relative viability (Trametinib; 0.025 µM) | relative viability (Trametinib; 0.07906 µM) | relative viability (Trametinib; 0.25 µM) |
| --- | --- | --- | --- | --- | --- | --- | --- | --- | --- | --- | --- | --- | --- | --- | --- | --- |
| NCI-H661 | 0.43 | 0.451 | 0.448 | 0.341 | 0.421 | 0.999 | 0.986 | 0.985 | 1.06 | 0.986 | 1.01 | 0.975 | 0.575 | 0.899 | 0.799 | 0.724 |
| NCI-H520 | 0.855 | 0.912 | 0.756 | 0.68 | 0.428 | 0.967 | 0.895 | 1.03 | 0.952 | 0.965 | 0.86 | 1.06 | 0.735 | 0.924 | 0.949 | 0.623 |
| NCI-H1563 | 0.973 | 0.937 | 0.808 | 0.84 | 0.61 | 1.08 | 1 | 0.99 | 1.05 | 0.992 | 0.983 | 0.782 | – | 0.952 | 0.938 | 0.723 |
| NCI-H2405 | 0.992 | 0.68 | 0.498 | 0.499 | 0.481 | 0.987 | 0.959 | 0.715 | 0.966 | 0.961 | 0.944 | 0.946 | 0.665 | 0.553 | 0.535 | 0.556 |
| LCLC-97TM1 | 0.666 | 0.944 | 0.666 | 0.3 | 0.138 | 0.701 | 0.844 | 0.717 | 1.11 | 0.922 | 0.884 | 0.836 | 0.197 | 0.398 | 0.204 | 0.138 |
| NCI-H727 | 0.606 | 0.415 | 0.291 | 0.297 | 0.216 | 0.924 | 0.855 | 0.818 | 0.921 | 0.936 | 0.678 | 0.381 | 0.389 | 0.381 | 0.295 | 0.288 |
| NCI-H2228 | 0.881 | 0.513 | 0.765 | 0.734 | 0.286 | 1.05 | 0.856 | – | 0.864 | 1.14 | 0.771 | 0.885 | 0.555 | 0.811 | 0.61 | 0.363 |
| LK-2 | 0.797 | 0.758 | 0.822 | 0.711 | 0.375 | – | 0.697 | 0.652 | 0.776 | 0.975 | 0.93 | 0.832 | 0.761 | 0.989 | 0.757 | 0.388 |
| PC-3 [JPC-3] | 0.451 | 0.425 | 0.425 | 0.404 | 0.377 | 1.03 | 1.02 | 0.859 | 0.975 | 0.989 | 1.03 | 0.916 | 0.7 | 0.843 | 0.764 | 0.637 |
